Where “and” joins values, the source holds several entries; their conditions need not be identical. Equal entries are not always repeated.
Key:
androgen receptor (AR) = experiment: Androgen receptor (AR) expression in LNCaP cells, real-time RT-PCR; assay type: cell-based; conditions: no extract
[1] = tested on: prostate-specific antigen (PSA); experiment: Inhibition of testosterone-induced prostate-specific antigen (PSA) expression in LNCaP cells, real-time RT-PCR; assay type: cell-based; conditions: testosterone 100 nM, 24 hours, no extract
Method: Reverse transcription-real-time polymerase chain reaction (real-time RT-PCR) was used to measure the inhibition of expression of prostate-specific antigen (PSA) in testosterone-induced prostate cancer cell lines (LNCaP cells). Specifically, the prostate cancer cell line (LNCaP cells) was dispensed to a 6 well plate at 5×10^5 cells/well. After incubating for 24 hours in an incubator under conditions of 37° C. and 5% CO2, Ficus auriculata Lour. fruit extract of each country of origin (Vietnam, Nepal, Myanmar, Bangladesh, China, Laos) was added at 100 μg/ml and incubated for 3 hours. Testosterone 100 nM was added to each well except for the control and incubated for 24 hours. After incubation for 24 hours, the supernatant was removed, total RNA was extracted using Trizol, and cDNA was synthesized using PrimeScript RT Master Mix (Takara, Japan). The synthesized cDNA was subjected to real-time polymerase chain reaction using TOPreal qPCR 2×PreMIX (Enzynomics, Korea).
Reverse transcription-real-time polymerase chain reaction (real-time RT-PCR) was used to measure the inhibition of expression of prostate-specific antigen (PSA) in testosterone-induced prostate cancer cell lines (LNCaP cells). Specifically, the prostate cancer cell line (LNCaP cells) was dispensed to a 6 well plate at 5×10^5 cells/well. […]

## C[C@]12CC[C@H]3[C@@H](CCC4=CC(=O)CC[C@@]43C)[C@@H]1CC[C@@H]2O [testosterone]
Androgen receptor (AR)
  expression of AR increased by testosterone: 140%
[1]
  PSA expression increased by testosterone: 190% and 180%
